According to patent publication US7910141B2, “Antiallergic composition” (Sapporo Breweries Limited, priority 2005, dated 2011):
Structures can show the parent of a compound that is named as a salt.

Tested on: ICR mice
Assay: DNP-HSA-induced auricular edema in mice (passive cutaneous anaphylaxis)
Assay type: in vivo, mouse
Conditions: FIG. 8 experiment
Description: Inhibiting Action of Hop Water Extract on DNP-HSA-Induced Auricular Edema in Mice: • Six-week-old ICR mice (male or female; Charles River Laboratories, Japan Inc.) were separated into 4-5 per cage and raised at room temperature (24±2° C.) and 55±15% humidity, with a 12 hour light/dark cycle (light: 8:00-20:00). After preparatory rearing for at least one week, they were provided for the test. A hop pellet water extract, hop leaf water extract or ketotifen fumarate aqueous solution (10 mL/kg) was forcedly administered orally to each test group, while 10 mL/kg of distilled water was forcedly administered orally to the control group. The hop pellet water extract was prepared by adding hop pellets (Czech Saaz) to distilled water to 10% (w/w) and extracting overnight at 4° C., and then centrifuging at 3000 rpm for 10 minutes and filtering. The hop leaf water extract was prepared by adding dry hop leaves (Kokusan hop young leaves) to distilled water to 10% (w/w) and extracting overnight at 4° C., and then centrifuging at 3000 rpm for 10 minutes and filtering. The ketotifen fumarate aqueous solution was prepared by dissolving in distilled water to a concentration of 0.5 mg/mL.
At 1 hour after oral administration, 20 μL of 10 μg/mL mouse anti-DNP-IgE antibody (Sigma) was intradermally injected into one auricle of each mouse, while 20 μL of physiological saline (PS) was intradermally injected into the other auricle. […] The auricular thickness before antigen administration and 30 minutes after antigen administration was measured three times each using a thickness gauge, and the auricular edema ratio and auricular thickness increase were determined. […] The auricular edema ratio (%) was calculated by the formula: (Mean auricular thickness 30 minutes after antigen administration−mean auricular thickness before antigen administration)×100/mean auricular thickness […], and the auricular thickness increase (mm) was calculated by the formula: Mean auricular thickness 30 minutes after antigen administration−mean auricular thickness before antigen administration.

[1] = oral 10 mL/kg, intradermal injection of IgE antibody, 30 minutes after antigen

**Q.** What does the source list for `CN1CCC(=C2c3ccccc3CC(=O)c3sccc32)CC1` [ketotifen fumarate]?
**A.** auricular edema ratio compared to the distilled water-administered group (t-test) (ketotifen p<0.05, hop extracts p value of 0.08, critical region 5%): significantly inhibited; auricular edema ratio [1]: 12.7±5.4%; auricular thickness increase [1]: 0.045±0.020 mm
